According to patent publication US8940724B2, “Quinoline derivitives and their uses” (Amgen Inc., priority 2009, dated 2015):

Molecular target: T1, PI3Kδ (Homo sapiens, UniProt O00329)
T1 construct: Full length p110 subunits of PI3k α, β and δ, N-terminally labeled with polyHis tag; polyHis (N); made in house; host or cells: Sf9 insect cells (baculovirus)
Assay: PI3Kδ Alphascreen assay
Type: biochemical

T1 sequence (O00329 whole entry): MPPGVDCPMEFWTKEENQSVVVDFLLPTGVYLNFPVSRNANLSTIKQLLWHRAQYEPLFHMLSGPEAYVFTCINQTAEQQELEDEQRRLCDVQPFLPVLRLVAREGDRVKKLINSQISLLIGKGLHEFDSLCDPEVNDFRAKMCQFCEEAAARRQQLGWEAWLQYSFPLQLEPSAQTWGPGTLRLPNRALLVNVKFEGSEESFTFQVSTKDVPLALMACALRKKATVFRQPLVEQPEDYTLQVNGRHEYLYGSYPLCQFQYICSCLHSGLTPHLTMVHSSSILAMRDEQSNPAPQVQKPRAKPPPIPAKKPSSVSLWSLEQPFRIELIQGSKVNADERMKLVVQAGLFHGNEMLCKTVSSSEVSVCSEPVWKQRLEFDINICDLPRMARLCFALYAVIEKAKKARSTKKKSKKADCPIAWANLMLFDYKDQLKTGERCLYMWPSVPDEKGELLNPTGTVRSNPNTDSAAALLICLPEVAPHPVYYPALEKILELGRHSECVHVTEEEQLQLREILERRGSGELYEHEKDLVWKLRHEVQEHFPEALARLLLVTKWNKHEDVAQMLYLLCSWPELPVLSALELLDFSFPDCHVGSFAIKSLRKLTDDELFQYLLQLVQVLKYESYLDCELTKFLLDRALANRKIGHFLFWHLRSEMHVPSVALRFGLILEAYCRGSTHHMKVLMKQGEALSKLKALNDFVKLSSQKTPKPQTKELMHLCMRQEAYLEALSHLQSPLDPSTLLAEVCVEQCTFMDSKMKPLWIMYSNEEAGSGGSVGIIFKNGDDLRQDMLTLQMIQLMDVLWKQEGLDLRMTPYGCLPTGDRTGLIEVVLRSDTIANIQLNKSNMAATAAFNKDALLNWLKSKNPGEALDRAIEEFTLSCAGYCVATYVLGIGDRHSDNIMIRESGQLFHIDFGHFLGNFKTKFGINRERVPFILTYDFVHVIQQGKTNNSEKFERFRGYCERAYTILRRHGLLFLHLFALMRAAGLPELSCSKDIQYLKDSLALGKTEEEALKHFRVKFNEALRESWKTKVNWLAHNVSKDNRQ
T1 sequence (P27986 whole entry partner): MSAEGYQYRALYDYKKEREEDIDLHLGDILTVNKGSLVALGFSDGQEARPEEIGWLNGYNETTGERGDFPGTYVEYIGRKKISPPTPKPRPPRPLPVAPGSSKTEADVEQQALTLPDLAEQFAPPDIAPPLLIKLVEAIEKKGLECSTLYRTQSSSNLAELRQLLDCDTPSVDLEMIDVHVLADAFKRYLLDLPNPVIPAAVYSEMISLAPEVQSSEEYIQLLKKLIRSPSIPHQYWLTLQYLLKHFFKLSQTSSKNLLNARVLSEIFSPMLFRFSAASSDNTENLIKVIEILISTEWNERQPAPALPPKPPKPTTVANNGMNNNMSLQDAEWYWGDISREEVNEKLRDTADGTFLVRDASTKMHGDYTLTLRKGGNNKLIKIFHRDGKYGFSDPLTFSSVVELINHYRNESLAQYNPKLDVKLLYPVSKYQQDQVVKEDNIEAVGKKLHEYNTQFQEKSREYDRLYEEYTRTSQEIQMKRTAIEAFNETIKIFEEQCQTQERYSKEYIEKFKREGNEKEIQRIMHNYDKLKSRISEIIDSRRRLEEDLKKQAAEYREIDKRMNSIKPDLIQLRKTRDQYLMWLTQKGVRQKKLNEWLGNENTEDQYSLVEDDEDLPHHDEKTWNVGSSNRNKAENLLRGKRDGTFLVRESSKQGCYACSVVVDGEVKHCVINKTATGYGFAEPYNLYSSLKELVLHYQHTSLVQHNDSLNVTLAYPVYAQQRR

Going from `Cc1c(-c2cc(OC(F)(F)F)ccc2S(C)(=O)=O)nc2cc(F)cc(F)c2c1Nc1cncc(N2CCOCC2)c1` [5,7-difluoro-3-methyl-2-(2-(methylsulfonyl)-5-(trifluoromethoxy)phenyl)-N-(5-(4-morpholinyl)-3-pyridinyl)-4-quinolinamine] to `Cc1ccc(S(C)(=O)=O)c(-c2nc3cc(F)cc(F)c3c(Nc3cncc(N4CCOCC4)c3)c2C)c1` [5,7-difluoro-3-methyl-2-(5-methyl-2-(methylsulfonyl)phenyl)-N-(5-(4-morpholinyl)-3-pyridinyl)-4-quinolinamine], the Ki falls from 4.18 nM to 1.35 nM (3.1-fold). The second binds more tightly here.

First: Cc1c(-c2ccccc2S(C)(=O)=O)nc2cc(F)cc(F)c2c1Nc1cncc(N2CCOCC2)c1 [5,7-difluoro-3-methyl-2-(2-(methylsulfonyl)phenyl)-N-(5-(4-morpholinyl)-3-pyridinyl)-4-quinolinamine]
Second: Cc1c(-c2ccccc2S(C)(=O)=O)nc2cc(F)cc(F)c2c1Nc1cc(N2CCOCC2)ccc1S(C)(=O)=O [5,7-difluoro-3-methyl-N-(2-(methylsulfonyl)-5-(4-morpholinyl)-phenyl)-2-(2-(methylsulfonyl)phenyl)-4-quinolinamine]
The Ki of the first is 3.9-fold higher: 3.24 nM for the first, 0.827 nM for the second. The second binds more tightly here.

Compared with `Cc1c(-c2ccccn2)nc2cc(F)cc(F)c2c1Nc1cncc(C2CCOCC2)c1` [5,7-difluoro-3-methyl-2-(2-pyridinyl)-N-(5-(tetrahydro-2H-pyran-4-yl)-3-pyridinyl)-4-quinolinamine], `Cc1ccnc(-c2nc3cc(F)cc(F)c3c(Nc3cncc(N4CCOCC4)c3)c2C)c1` [5,7-difluoro-3-methyl-2-(4-methyl-2-pyridinyl)-N-(5-(4-morpholinyl)-3-pyridinyl)-4-quinolinamine] is 11-fold lower in Ki: 209 nM for the first, 19.2 nM for the second.

Compared with `Cc1c(N2CCN(C(C)C)CC2)nc2cc(F)cc(F)c2c1Nc1cncc(N2CCOCC2)c1` [5,7-difluoro-3-methyl-2-(4-(1-methylethyl)-1-piperazinyl)-N-(5-(4-morpholinyl)-3-pyridinyl)-4-quinolinamine], `Cc1c(N2CCN(C)CC2)nc2cc(F)cc(F)c2c1Nc1cncc(N2CCOCC2)c1` [5,7-difluoro-3-methyl-2-(4-methyl-1-piperazinyl)-N-(5-(4-morpholinyl)-3-pyridinyl)-4-quinolinamine] is 3.1-fold higher in Ki: 11.3 nM for the first, 35.2 nM for the second. The first binds more tightly here.

First: Cc1c(N2CCN(C(=O)C(C)C)CC2)nc2cc(F)cc(F)c2c1Nc1cncc(N2CCOCC2)c1 [5,7-difluoro-3-methyl-2-(4-(2-methylpropanoyl)-1-piperazinyl)-N-(5-(4-morpholinyl)-3-pyridinyl)-4-quinolinamine]
Second: Cc1c(N2CCN(S(=O)(=O)C(C)C)CC2)nc2cc(F)cc(F)c2c1Nc1cncc(N2CCOCC2)c1 [5,7-difluoro-3-methyl-2-(4-((1-methylethyl)sulfonyl)-1-piperazinyl)-N-(5-(4-morpholinyl)-3-pyridinyl)-4-quinolinamine]
The Ki of the first is 1.6-fold lower: 33.3 nM for the first, 53.4 nM for the second. The first binds more tightly here.

Compared with `Cc1c(N2CCN(S(=O)(=O)CC(C)C)CC2)nc2cc(F)cc(F)c2c1Nc1cncc(N2CCOCC2)c1` [5,7-difluoro-3-methyl-2-(4-((2-methylpropyl)sulfonyl)-1-piperazinyl)-N-(5-(4-morpholinyl)-3-pyridinyl)-4-quinolinamine], `Cc1c(N2CCN(S(C)(=O)=O)CC2)nc2cc(F)cc(F)c2c1Nc1cncc(N2CCOCC2)c1` [5,7-difluoro-3-methyl-2-(4-(methylsulfonyl)-1-piperazinyl)-N-(5-(4-morpholinyl)-3-pyridinyl)-4-quinolinamine] is 1.6-fold lower in Ki: 71.3 nM for the first, 45.5 nM for the second.

Compared with `Cc1ccc(C(=O)N2CCN(c3nc4cc(F)cc(F)c4c(Nc4cncc(N5CCOCC5)c4)c3C)CC2)o1` [5,7-difluoro-3-methyl-2-(4-((5-methyl-2-furanyl)carbonyl)-1-piperazinyl)-N-(5-(4-morpholinyl)-3-pyridinyl)-4-quinolinamine], `Cc1c(N2CCN(C(=O)c3cnco3)CC2)nc2cc(F)cc(F)c2c1Nc1cncc(N2CCOCC2)c1` [5,7-difluoro-3-methyl-N-(5-(4-morpholinyl)-3-pyridinyl)-2-(4-(1,3-oxazol-5-ylcarbonyl)-1-piperazinyl)-4-quinolinamine] is 1.6-fold lower in Ki: 78.2 nM for the first, 48 nM for the second.

Compared with `Cc1ccc(C(=O)N2CCN(c3nc4cc(F)cc(F)c4c(Nc4cncc(N5CCOCC5)c4)c3C)CC2)cn1` [5,7-difluoro-3-methyl-2-(4-((6-methyl-3-pyridinyl)carbonyl)-1-piperazinyl)-N-(5-(4-morpholinyl)-3-pyridinyl)-4-quinolinamine], `Cc1c(N2CCN(C(=O)c3cccnc3)CC2)nc2cc(F)cc(F)c2c1Nc1cncc(N2CCOCC2)c1` [5,7-difluoro-3-methyl-N-(5-(4-morpholinyl)-3-pyridinyl)-2-(4-(3-pyridinylcarbonyl)-1-piperazinyl)-4-quinolinamine] is 1.9-fold higher in Ki: 180 nM for the first, 343 nM for the second.

Going from `Cc1ccnc(-c2nc3cc(F)cc(F)c3c(Nc3cc(N4CCOCC4)ccc3S(C)(=O)=O)c2C)c1` [5,7-difluoro-3-methyl-2-(4-methyl-2-pyridinyl)-N-(2-(methylsulfonyl)-5-(4-morpholinyl)phenyl)-4-quinolinamine] to `Cc1c(-c2ccccn2)nc2cc(F)cc(F)c2c1Nc1cc(N2CCOCC2)cnc1-c1ccc(S(C)(=O)=O)cc1` [5,7-difluoro-3-methyl-N-(2-(4-(methylsulfonyl)phenyl)-5-(4-morpholinyl)-3-pyridinyl)-2-(2-pyridinyl)-4-quinolinamine], the Ki rises from 0.821 nM to 2.15 nM (2.6-fold). The first binds more tightly here.

First: Cc1c(N2CCOCC2)nc2cc(F)cc(F)c2c1Nc1cncc(N2CCOCC2)c1 [5,7-difluoro-3-methyl-2-(4-morpholinyl)-N-(5-(4-morpholinyl)-3-pyridinyl)-4-quinolinamine]
Second: Cc1c(N2CCNCC2)nc2cc(F)cc(F)c2c1Nc1cncc(N2CCOCC2)c1 [5,7-difluoro-3-methyl-N-(5-(4-morpholinyl)-3-pyridinyl)-2-(1-piperazinyl)-4-quinolinamine]
The Ki of the first is 1.6-fold lower: 55.7 nM for the first, 87.1 nM for the second. The first binds more tightly here.

`Cc1ccc(-c2nc3cc(F)cc(F)c3c(Nc3cncc(N4CCOCC4)c3)c2C)nc1` [5,7-difluoro-3-methyl-2-(5-methyl-2-pyridinyl)-N-(5-(4-morpholinyl)-3-pyridinyl)-4-quinolinamine] and `Cc1ccc(-c2nc3cc(F)cc(F)c3c(Nc3cncc(N4CCOCC4)c3)c2C)cn1` [5,7-difluoro-3-methyl-2-(6-methyl-3-pyridinyl)-N-(5-(4-morpholinyl)-3-pyridinyl)-4-quinolinamine] are the same in Ki: 19.1 nM for the first, 19.1 nM for the second.

First: Cc1c(N2CCNC[C@H]2C)nc2cc(F)cc(F)c2c1Nc1cncc(N2CCOCC2)c1 [5,7-difluoro-3-methyl-2-((2R)-2-methyl-1-piperazinyl)-N-(5-(4-morpholinyl)-3-pyridinyl)-4-quinolinamine]
Second: Cc1c(N2CCNC[C@@H]2C)nc2cc(F)cc(F)c2c1Nc1cncc(N2CCOCC2)c1 [5,7-difluoro-3-methyl-2-((2S)-2-methyl-1-piperazinyl)-N-(5-(4-morpholinyl)-3-pyridinyl)-4-quinolinamine]
The Ki of the first is 4.9-fold lower: 15.9 nM for the first, 78.1 nM for the second.

Going from `Cc1c(N2CCN[C@H](C)C2)nc2cc(F)cc(F)c2c1Nc1cncc(N2CCOCC2)c1` [5,7-difluoro-3-methyl-2-((3R)-3-methyl-1-piperazinyl)-N-(5-(4-morpholinyl)-3-pyridinyl)-4-quinolinamine] to `Cc1c(N2CCN[C@@H](C)C2)nc2cc(F)cc(F)c2c1Nc1cncc(N2CCOCC2)c1` [5,7-difluoro-3-methyl-2-((3S)-3-methyl-1-piperazinyl)-N-(5-(4-morpholinyl)-3-pyridinyl)-4-quinolinamine], the Ki falls from 44.3 nM to 20.6 nM (2.2-fold). The second binds more tightly here.

Compared with `Cc1c(N2CCN(S(C)(=O)=O)[C@H](C)C2)nc2cc(F)cc(F)c2c1Nc1cncc(N2CCOCC2)c1` [5,7-difluoro-3-methyl-2-((3R)-3-methyl-4-(methylsulfonyl)-1-piperazinyl)-N-(5-(4-morpholinyl)-3-pyridinyl)-4-quinolinamine], `Cc1c(N2CCN(CC(F)(F)F)CC2)nc2cc(F)cc(F)c2c1Nc1cncc(N2CCOCC2)c1` [5,7-difluoro-3-methyl-N-(5-(4-morpholinyl)-3-pyridinyl)-2-(4-(2,2,2-trifluoroethyl)-1-piperazinyl)-4-quinolinamine] is 6-fold lower in Ki: 244 nM for the first, 40.7 nM for the second.

Going from `Cc1c(-c2ccccn2)nc2cc(F)cc(F)c2c1Oc1cncc(N2CCOCC2)c1` [5,7-difluoro-3-methyl-4-((5-(4-morpholinyl)-3-pyridinyl)oxy)-2-(2-pyridinyl)quinoline] to `Cc1c(-c2ccnc(N3CCCC3)c2)nc2cc(F)cc(F)c2c1Nc1cncc(N2CCOCC2)c1` [5,7-difluoro-3-methyl-N-(5-(4-morpholinyl)-3-pyridinyl)-2-(2-(1-pyrrolidinyl)-4-pyridinyl)-4-quinolinamine], the Ki rises from 51.9 nM to 315 nM (6.1-fold). The first binds more tightly here.

Going from `Cc1c(N2CCN(C(=O)c3cocn3)CC2)nc2cc(F)cc(F)c2c1Nc1cncc(N2CCOCC2)c1` [5,7-difluoro-3-methyl-N-(5-(4-morpholinyl)-3-pyridinyl)-2-(4-(1,3-oxazol-4-ylcarbonyl)-1-piperazinyl)-4-quinolinamine] to `Cc1c(N2CCN(C(=O)c3ccncn3)CC2)nc2cc(F)cc(F)c2c1Nc1cncc(N2CCOCC2)c1` [5,7-difluoro-3-methyl-N-(5-(4-morpholinyl)-3-pyridinyl)-2-(4-(4-pyrimidinylcarbonyl)-1-piperazinyl)-4-quinolinamine], the Ki rises from 14.5 nM to 99.1 nM (6.8-fold). The first binds more tightly here.

Compared with `Cc1c(N2CCN(C(=O)c3ncccn3)CC2)nc2cc(F)cc(F)c2c1Nc1cncc(N2CCOCC2)c1` [5,7-difluoro-3-methyl-N-(5-(4-morpholinyl)-3-pyridinyl)-2-(4-(2-pyrimidinylcarbonyl)-1-piperazinyl)-4-quinolinamine], `Cc1c(N2CCN(C(=O)c3ccccc3)CC2)nc2cc(F)cc(F)c2c1Nc1cncc(N2CCOCC2)c1` [5,7-difluoro-3-methyl-N-(5-(4-morpholinyl)-3-pyridinyl)-2-(4-(phenylcarbonyl)-1-piperazinyl)-4-quinolinamine] is 7.3-fold lower in Ki: 645 nM for the first, 87.9 nM for the second. The second binds more tightly here.

Going from `Cc1c(N2CCN(c3cccnc3)CC2)nc2cc(F)cc(F)c2c1Nc1cncc(N2CCOCC2)c1` [5,7-difluoro-3-methyl-N-(5-(4-morpholinyl)-3-pyridinyl)-2-(4-(3-pyridinyl)-1-piperazinyl)-4-quinolinamine] to `Cc1c(N2CCN(S(=O)(=O)c3cccnc3)CC2)nc2cc(F)cc(F)c2c1Nc1cncc(N2CCOCC2)c1` [5,7-difluoro-3-methyl-N-(5-(4-morpholinyl)-3-pyridinyl)-2-(4-(3-pyridinylsulfonyl)-1-piperazinyl)-4-quinolinamine], the Ki rises from 11.8 nM to 67.5 nM (5.7-fold).
